Test results as given in the NIST ThermoML archive (doi:10.1021/je030196t).

Key:
[1] = 101.3 kPa, Liquid
[2] = refractive index (Na D-line) (dimensionless); conditions: 303.15 K; 101.33 kPa; Liquid
[3] = refractive index (Na D-line) (dimensionless); xn = mol fraction of the nth substance listed; conditions: 303.15 K, 101.3 kPa, Liquid
[4] = xn = mol fraction of the nth substance listed; conditions: 101.3 kPa, Liquid

C1COCCO1 [1,4-dioxane]
[1]
Conditions	mass density [kg/m3]	viscosity [mPa·s]
303.15 K	1024.63	1.022
313.15 K	1013.3	0.871
323.15 K	1001.9	0.807

Conditions	refractive index
[2]	1.4181

C1CCOC1 [tetrahydrofuran]
[1]
Conditions	mass density [kg/m3]	viscosity [mPa·s]
303.15 K	876.6	0.463
313.15 K	865.65	0.4
323.15 K	854.3	0.372

Conditions	refractive index
[2]	1.4048

C1COCCO1 [1,4-dioxane] + O
[3]
Conditions	refractive index
x2 = 0	1.4181
x2 = 0.3523	1.4116
x2 = 0.5503	1.4046
x2 = 0.6772	1.3972
x2 = 0.7654	1.391
x2 = 0.8304	1.3865
x2 = 0.8801	1.3798
x2 = 0.9195	1.3698
x2 = 0.9514	1.3517
x2 = 0.9778	1.3417

mass density [kg/m3], [4]
Conditions	x2 = 0	x2 = 0.3523	x2 = 0.5503	x2 = 0.6772	x2 = 0.7654	x2 = 0.8304	x2 = 0.8801	x2 = 0.9195	x2 = 0.9514	x2 = 0.9778
303.15 K	1024.63	1029.1	1032.4	1033.83	1033.22	1030.5	1025.6	1019.51	1012.1	1004.1
313.15 K	1013.3	1018.5	1022.6	1024.7	1024.7	1022.7	1018.7	1013.4	1006.9	999.8
323.15 K	1001.9	1007.8	1012.5	1015.2	1015.9	1014.6	1011.4	1006.9	1001.3	994.9

O [water] + C1COCCO1
Conditions	refractive index
[3], x1 = 1	1.3326

Conditions	mass density [kg/m3]
[4], 313.15 K, x1 = 1	992.3

O [water] + C1CCOC1
Conditions	refractive index
[3], x1 = 1	1.3326

[4], x1 = 1
Conditions	mass density [kg/m3]	viscosity [mPa·s]
303.15 K	–	0.754
313.15 K	991.91	0.624
323.15 K	985.7	0.544

C1CCOC1 [tetrahydrofuran] + O
[3]
Conditions	refractive index
x2 = 0	1.4048
x2 = 0.3523	1.3994
x2 = 0.5503	1.3946
x2 = 0.6772	1.387
x2 = 0.7654	1.3786
x2 = 0.8304	1.3684
x2 = 0.8801	1.3613
x2 = 0.9195	1.3546
x2 = 0.9514	1.3405
x2 = 0.9778	1.3386

[4]
Conditions	mass density, 303.15 K [kg/m3]	mass density, 313.15 K [kg/m3]	mass density, 323.15 K [kg/m3]	viscosity, 303.15 K [mPa·s]	viscosity, 313.15 K [mPa·s]	viscosity, 323.15 K [mPa·s]
x2 = 0	876.6	865.65	854.3	0.463	0.4	0.372
x2 = 0.3081	894.98	884.04	872.9	0.574	0.519	0.34
x2 = 0.5004	912.11	901.53	890.7	0.793	0.668	0.578
x2 = 0.6319	927.1	916.82	901.63	1.001	0.833	0.698
x2 = 0.7276	941.82	931.96	921.9	1.208	0.98	0.807
x2 = 0.8002	955.23	945.99	936.5	1.344	1.061	0.868
x2 = 0.8573	966.73	958.34	949.3	1.384	1.084	0.871
x2 = 0.9034	977.2	969.74	962.2	1.341	1.021	0.829
x2 = 0.9413	984.94	–	972.7	1.226	0.92	0.74
x2 = 0.973	990.31	990.31	980.8	1.003	0.803	0.641
